# Calls of active or inactive are those of the source.
# Experiments:
# Interleukin-8 [1] = target: T1, Interleukin-8 (Homo sapiens, UniProt P10145); assay: Dose Response confirmation of uHTS small molecule hits for cystic fibrosis induced NFkb Inhibitors in a TNFa-induced IL8 counterscreen.; type: functional; conditions: read-out: IC50_Mean
# T1 sequence (P10145 whole entry): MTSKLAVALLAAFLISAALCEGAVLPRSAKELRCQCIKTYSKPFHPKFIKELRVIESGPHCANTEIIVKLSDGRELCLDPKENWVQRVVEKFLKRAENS
# Interleukin-8 [2] = target: T1, Interleukin-8; assay: Dose Response confirmation of uHTS small molecule hits for cystic fibrosis induced NFkb Inhibitors in a PAF-induced IL8 counterscreen.; type: functional; conditions: read-out: IC50_Mean
# [3] = system: Streptococcus sp. 'group A'; assay: Streptococcus pyogenes SK(-)GAS viability under kanamycin – luminescence, BacTiterGlo, confirmation, counter-screen for streptokinase expression inhibitor project, dose response (AID 1900); type: functional, organism-based
# Streptokinase A = target: T2, Streptokinase A (Streptococcus pyogenes serotype M1, UniProt P10520); assay: viability-normalized secreted streptokinase activity reduction – plasminogen activation absorbance, OD405, dose response (AID 1914); type: functional, Streptococcus pyogenes M1 GAS;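 further: secreted streptokinase activity via plasminogen activation per viability signal from cell pellet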
# T2 sequence (P10520 whole entry): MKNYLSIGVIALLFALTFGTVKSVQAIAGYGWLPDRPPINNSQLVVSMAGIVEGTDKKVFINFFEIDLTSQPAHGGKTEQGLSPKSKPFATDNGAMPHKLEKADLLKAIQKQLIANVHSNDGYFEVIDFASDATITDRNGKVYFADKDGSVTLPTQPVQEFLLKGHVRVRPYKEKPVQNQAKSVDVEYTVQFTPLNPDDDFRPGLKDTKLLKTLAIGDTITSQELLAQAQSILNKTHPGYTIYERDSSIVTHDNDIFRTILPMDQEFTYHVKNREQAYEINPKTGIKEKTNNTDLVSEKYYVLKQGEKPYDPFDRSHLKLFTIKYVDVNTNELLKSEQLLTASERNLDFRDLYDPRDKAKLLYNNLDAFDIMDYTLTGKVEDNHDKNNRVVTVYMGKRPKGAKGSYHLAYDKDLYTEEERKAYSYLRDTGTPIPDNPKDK
# Streptococcus = assay: GAS UMAA2166 growth inhibition – luminescence, BacTiterGlo, counter-screen for streptokinase expression inhibitor project, dose response (AID 1915); type: functional, organism-based;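 further: potency for reduction of bacterial viability or growth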
# CHO = CHO cell viability loss, potency – luminescence, cytotoxicity control for TLR9-MyD88 binding inhibitor project, dose response (AID 588339); type: functional, cell-based, hamster; conditions: Cricetulus griseus;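 further: CHO cells stably coexpressing TLR9 and MyD88 fusions from primary screen; compound exposure lasted 48 hours before viability readout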
# [4] = target: T3, Replicative DNA helicase DnaB (Mycobacterium tuberculosis, UniProt P9WMR3); assay: DnaB intein splicing inhibitors, dose response, biochemical, cell-free fluorescence (AID 449749); type: functional
# T3 sequence (P9WMR3 whole entry): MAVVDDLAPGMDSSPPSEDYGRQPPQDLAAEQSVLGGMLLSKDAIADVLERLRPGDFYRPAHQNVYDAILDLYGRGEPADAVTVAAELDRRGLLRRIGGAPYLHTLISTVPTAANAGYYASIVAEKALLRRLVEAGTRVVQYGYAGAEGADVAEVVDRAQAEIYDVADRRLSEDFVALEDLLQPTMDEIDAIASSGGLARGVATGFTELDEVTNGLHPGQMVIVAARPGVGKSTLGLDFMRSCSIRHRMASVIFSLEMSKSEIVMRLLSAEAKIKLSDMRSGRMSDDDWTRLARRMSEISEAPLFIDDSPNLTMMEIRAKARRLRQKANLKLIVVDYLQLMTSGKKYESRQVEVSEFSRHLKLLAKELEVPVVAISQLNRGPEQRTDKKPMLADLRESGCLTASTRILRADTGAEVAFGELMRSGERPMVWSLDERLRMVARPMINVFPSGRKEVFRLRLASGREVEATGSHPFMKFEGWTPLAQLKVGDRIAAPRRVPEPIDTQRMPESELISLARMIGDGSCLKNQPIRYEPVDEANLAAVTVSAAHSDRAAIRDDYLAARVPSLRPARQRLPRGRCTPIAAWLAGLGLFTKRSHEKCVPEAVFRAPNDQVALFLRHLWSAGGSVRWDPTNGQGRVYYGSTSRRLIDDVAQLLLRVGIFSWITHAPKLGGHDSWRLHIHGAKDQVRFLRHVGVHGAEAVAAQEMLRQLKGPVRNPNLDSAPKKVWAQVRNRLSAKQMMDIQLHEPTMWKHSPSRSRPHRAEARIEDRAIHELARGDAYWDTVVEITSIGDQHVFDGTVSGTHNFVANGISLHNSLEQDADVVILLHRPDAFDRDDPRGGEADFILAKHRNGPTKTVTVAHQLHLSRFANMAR
# [5] = target: Heat shock protein HSP 90-alpha (Homo sapiens, UniProt P07900); type: functional, organism-based
# Protein RecA = target: T4, Protein RecA (Mycobacterium tuberculosis, UniProt P9WHJ3); assay: Fluorescence Cell-Free Homogeneous Dose Retest to Identify Inhibitors of RecA-Intein Splicing Activity. [Related pubchem assays (depositor defined):AID2097, AID2223, AID489010, AID492950]; type: functional
# T4 sequence (P9WHJ3 whole entry): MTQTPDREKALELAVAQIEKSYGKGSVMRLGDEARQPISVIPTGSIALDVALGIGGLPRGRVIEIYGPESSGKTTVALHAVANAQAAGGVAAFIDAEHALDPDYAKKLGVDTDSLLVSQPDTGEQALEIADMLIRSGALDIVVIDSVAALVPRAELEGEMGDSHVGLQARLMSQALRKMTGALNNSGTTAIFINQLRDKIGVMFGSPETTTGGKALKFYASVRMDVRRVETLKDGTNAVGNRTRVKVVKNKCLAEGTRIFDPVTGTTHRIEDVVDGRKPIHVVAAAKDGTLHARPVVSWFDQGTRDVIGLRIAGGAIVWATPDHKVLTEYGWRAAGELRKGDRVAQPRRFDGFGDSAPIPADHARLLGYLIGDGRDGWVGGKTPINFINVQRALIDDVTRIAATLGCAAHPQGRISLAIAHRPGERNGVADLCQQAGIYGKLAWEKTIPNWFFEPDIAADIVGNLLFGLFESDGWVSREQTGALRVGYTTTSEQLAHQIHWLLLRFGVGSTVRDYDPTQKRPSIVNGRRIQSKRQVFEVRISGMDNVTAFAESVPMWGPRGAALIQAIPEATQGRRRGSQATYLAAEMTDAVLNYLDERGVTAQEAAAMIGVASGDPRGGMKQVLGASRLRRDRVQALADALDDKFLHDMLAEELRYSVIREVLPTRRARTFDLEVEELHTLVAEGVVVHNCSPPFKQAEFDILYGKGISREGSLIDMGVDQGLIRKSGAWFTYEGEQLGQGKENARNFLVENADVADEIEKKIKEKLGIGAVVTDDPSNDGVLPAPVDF
# Beta Lactamase = Beta Lactamase (Pseudomonas aeruginosa, UniProt Q932Y6); assay: BLA reporter interference, concentration series – BLA reporter cells, FRET fluorescence, artefact control for TLR9-MyD88 binding inhibitor project, dose response (AID 588341); type: cell-based;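 further: cell based assay in CHO-K1 cells stably expressing beta-lactamase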
# Sequence of Beta Lactamase (Q932Y6 whole entry): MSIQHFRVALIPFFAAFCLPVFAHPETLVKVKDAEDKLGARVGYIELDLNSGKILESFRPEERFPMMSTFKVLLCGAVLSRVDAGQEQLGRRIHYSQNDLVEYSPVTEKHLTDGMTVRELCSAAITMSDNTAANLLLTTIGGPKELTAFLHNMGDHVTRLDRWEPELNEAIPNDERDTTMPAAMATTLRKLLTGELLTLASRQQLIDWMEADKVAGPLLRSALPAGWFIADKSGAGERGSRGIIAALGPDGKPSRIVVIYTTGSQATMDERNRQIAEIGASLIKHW
# INS1 = assay: INS-1E survival protection against cytokine death – cell-based, luminescence, retest, dose response (AID 449756); type: functional; conditions: Rattus norvegicus;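 further: cell death triggered by IL-1 beta plus TNF-alpha plus IFN-gamma mixture; protective hits raise ATP signal compared with cytokine alone wells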
# [6] = reduction of Shn3 3'UTR-driven luciferase in osteoblasts – cell-based, Clone20 osteoblasts, firefly luciferase, cherry-picked, dose response (AID 624132); type: functional;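 further: firefly luciferase luminescence from reporter carrying the Shn3 3'UTR in osteoblasts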
# [7] = target: ATP-binding cassette sub-family B member 6 (Homo sapiens, UniProt Q9NP58); assay: concentration-dependent ABCB6 porphyrin transport blockade – K562-ABCB6 cells, flow cytometry, cherry pick 1, dose response (AID 623955); type: functional; conditions: read-out: EC50_MICROM
# Sequence of ATP-binding cassette sub-family B member 6 (Q9NP58 whole entry): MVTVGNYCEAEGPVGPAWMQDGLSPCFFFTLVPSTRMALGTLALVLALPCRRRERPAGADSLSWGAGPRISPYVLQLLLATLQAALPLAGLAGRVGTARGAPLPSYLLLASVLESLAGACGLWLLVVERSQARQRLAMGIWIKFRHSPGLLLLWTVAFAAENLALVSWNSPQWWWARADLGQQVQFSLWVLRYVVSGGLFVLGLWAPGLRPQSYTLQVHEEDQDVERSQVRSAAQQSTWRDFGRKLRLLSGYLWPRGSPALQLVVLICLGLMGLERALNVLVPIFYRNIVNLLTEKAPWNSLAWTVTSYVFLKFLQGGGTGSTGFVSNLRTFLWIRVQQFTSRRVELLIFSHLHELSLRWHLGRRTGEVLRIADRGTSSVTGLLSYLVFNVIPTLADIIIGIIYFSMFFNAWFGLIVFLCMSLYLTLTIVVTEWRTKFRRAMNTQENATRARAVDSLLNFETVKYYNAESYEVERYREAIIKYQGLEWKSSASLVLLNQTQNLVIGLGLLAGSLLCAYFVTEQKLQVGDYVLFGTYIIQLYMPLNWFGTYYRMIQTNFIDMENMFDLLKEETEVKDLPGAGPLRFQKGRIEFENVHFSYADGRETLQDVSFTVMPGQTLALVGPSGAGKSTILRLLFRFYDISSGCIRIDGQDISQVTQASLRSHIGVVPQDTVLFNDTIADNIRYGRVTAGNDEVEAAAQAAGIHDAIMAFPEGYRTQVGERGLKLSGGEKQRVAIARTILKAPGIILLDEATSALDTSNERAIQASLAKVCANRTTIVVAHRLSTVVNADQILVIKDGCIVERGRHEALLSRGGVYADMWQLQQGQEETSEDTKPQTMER
# [8] = loss of viability in HepG2 cells – cell-based, CellTiter-Glo, cherry-picked, cytotoxicity control for Shn3 inhibitor project, dose response (AID 624134); type: functional
# [9] = non-specific 3'UTR reporter inhibition in Clone20-Shn3RL – cell-based, Renilla luciferase, cherry-picked, counter-screen for Shn3 inhibitor project, dose response (AID 624133); type: functional
# [10] = target: T5, Polyadenylate-binding protein 1 (Homo sapiens, UniProt P11940); assay: MLLE binding blockers, Cy5 peptide tracer – biochemical, fluorescence polarization, Cy5-PAM2 peptide, secondary, miRNA deadenylation inhibitor project, dose response (AID 602260); type: functional; conditions: read-out: IC50_Mean
# T5 sequence (P11940 whole entry): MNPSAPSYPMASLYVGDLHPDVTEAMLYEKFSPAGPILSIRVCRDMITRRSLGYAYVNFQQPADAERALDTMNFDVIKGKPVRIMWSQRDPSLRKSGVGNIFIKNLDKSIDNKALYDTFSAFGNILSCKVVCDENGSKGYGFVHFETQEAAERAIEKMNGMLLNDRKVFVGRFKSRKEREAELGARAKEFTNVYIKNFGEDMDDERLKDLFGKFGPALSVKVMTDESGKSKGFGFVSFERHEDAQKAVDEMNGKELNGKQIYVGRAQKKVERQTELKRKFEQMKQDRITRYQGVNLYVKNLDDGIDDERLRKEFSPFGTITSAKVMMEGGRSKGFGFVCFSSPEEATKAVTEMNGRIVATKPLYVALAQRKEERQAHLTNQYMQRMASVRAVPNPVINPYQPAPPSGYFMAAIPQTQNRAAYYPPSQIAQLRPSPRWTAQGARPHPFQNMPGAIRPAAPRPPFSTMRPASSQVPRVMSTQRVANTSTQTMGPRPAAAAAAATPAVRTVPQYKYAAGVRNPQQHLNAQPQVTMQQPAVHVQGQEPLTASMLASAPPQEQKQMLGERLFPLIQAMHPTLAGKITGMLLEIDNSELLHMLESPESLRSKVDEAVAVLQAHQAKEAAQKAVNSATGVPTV
# [11] = target: DNA (cytosine-5)-methyltransferase 1 (Homo sapiens, UniProt P26358); assay: inhibition of DNA methylation by DNMT1 – biochemical, fluorescent molecular beacon, confirmation (AID 602386); type: functional
# Sequence of DNA (cytosine-5)-methyltransferase 1 (P26358 whole entry, the tested form may be a part): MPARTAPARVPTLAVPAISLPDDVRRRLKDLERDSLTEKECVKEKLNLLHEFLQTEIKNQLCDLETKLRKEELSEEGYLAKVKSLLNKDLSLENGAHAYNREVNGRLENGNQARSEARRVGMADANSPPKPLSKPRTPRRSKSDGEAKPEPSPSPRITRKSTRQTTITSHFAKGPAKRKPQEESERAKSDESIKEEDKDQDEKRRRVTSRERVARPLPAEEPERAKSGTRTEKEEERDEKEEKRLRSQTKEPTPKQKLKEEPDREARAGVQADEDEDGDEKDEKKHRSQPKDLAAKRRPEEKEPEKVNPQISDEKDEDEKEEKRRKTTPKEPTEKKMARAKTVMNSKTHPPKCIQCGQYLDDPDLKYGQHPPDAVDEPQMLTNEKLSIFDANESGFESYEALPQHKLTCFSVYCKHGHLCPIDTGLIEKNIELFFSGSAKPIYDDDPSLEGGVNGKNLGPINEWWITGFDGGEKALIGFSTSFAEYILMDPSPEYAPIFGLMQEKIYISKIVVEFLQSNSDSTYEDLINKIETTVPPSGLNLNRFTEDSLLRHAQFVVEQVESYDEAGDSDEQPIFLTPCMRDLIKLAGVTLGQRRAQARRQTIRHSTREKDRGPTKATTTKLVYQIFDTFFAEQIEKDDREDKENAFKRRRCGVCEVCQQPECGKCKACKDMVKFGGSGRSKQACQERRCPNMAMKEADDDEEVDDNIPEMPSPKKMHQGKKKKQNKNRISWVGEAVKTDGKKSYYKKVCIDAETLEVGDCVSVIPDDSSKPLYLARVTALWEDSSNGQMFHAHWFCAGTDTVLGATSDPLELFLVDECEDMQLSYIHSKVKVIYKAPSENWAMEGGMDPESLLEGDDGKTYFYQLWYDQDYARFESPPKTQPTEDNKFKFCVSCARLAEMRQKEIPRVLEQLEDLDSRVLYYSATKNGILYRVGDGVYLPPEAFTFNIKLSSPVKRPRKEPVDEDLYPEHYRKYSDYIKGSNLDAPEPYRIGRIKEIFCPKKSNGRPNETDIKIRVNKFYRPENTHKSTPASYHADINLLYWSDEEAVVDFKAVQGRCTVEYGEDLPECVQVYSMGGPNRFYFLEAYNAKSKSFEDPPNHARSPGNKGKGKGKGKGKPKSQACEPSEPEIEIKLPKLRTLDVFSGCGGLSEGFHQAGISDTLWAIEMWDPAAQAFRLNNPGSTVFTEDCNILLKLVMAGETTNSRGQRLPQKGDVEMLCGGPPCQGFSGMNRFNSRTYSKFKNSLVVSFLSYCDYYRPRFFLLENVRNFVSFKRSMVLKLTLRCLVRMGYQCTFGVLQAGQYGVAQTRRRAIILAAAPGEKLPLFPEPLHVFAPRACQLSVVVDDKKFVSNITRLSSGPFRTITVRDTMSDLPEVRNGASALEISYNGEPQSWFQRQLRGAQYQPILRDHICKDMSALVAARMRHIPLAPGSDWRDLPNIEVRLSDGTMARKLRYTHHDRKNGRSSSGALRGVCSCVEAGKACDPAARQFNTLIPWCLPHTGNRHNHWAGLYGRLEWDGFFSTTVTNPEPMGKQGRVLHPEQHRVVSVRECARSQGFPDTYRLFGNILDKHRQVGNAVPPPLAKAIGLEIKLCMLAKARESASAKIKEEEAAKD
# [12] = target: T5, Polyadenylate-binding protein 1; assay: MLLE domain peptide-binding blockers, IC50 – biochemical, fluorescence polarization, FITC-PAM2 peptide, dose response (AID 602259); type: functional; conditions: read-out: IC50_Mean
# [13] = target: T6, Apoptotic protease-activating factor 1 (Homo sapiens, UniProt O14727); assay: SAR analysis of small molecule Activators of Apaf-1 in a Fluorescent assay.; type: functional; conditions: read-out: EC50_Mean;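 further: caspase-3 cleavage of fluorogenic Rh110 DEVD substrate downstream of apoptosome activation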
# T6 sequence (O14727 whole entry): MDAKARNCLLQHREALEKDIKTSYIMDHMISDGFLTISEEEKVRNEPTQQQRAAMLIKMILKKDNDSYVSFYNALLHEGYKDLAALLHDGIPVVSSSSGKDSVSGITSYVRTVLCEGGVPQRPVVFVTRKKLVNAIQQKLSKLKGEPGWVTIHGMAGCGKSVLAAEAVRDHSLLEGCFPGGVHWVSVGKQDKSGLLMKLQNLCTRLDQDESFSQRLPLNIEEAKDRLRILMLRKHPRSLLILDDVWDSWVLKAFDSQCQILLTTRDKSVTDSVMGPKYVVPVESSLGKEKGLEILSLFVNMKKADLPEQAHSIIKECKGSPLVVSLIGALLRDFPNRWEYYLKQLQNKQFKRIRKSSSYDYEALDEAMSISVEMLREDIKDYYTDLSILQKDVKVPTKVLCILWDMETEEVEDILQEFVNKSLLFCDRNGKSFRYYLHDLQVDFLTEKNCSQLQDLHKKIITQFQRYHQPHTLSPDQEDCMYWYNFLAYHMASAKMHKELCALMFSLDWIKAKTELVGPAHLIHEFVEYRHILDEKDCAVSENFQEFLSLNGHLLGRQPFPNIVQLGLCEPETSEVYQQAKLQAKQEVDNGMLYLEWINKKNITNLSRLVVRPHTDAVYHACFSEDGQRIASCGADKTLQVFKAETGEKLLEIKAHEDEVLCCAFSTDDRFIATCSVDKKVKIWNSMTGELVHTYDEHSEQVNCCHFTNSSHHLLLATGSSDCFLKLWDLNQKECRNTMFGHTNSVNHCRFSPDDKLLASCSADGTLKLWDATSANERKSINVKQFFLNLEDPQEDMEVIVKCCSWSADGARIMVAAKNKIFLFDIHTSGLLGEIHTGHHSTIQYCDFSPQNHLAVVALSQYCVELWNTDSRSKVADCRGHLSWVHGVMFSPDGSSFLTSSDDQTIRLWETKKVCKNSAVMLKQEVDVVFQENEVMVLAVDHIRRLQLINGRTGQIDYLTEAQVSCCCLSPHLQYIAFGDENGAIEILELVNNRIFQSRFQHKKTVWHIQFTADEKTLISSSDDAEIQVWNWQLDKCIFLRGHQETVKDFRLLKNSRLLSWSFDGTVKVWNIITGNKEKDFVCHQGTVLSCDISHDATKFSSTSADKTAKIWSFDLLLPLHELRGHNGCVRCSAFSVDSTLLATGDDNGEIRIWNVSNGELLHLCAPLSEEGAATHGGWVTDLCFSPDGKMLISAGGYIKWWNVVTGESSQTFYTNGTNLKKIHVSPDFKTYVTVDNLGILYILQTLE
# [14] = inhibition of ARNT PAS-B/TACC3 complex formation – biochemical, AlphaScreen, cherry-picked samples, confirmation (AID 651703); type: functional, Homo sapiens;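 further: His-tagged ARNT PAS-B domain paired with GST-TACC3 E629A dimer coactivator fragment; potency of inhibitors that break up the complex and lower AlphaScreen signal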
# [15] = target: Adenosylmethionine-8-amino-7-oxononanoate aminotransferase (Mycobacterium tuberculosis, UniProt P9WQ81); assay: Mycobacterium tuberculosis BioA enzyme inhibitor Measured in Biochemical System Using Plate Reader - 2163-02_Inhibitor_Dose_CherryPick_Activity.; type: functional, Mycobacterium tuberculosis UT205
# Sequence of Adenosylmethionine-8-amino-7-oxononanoate aminotransferase (P9WQ81 whole entry): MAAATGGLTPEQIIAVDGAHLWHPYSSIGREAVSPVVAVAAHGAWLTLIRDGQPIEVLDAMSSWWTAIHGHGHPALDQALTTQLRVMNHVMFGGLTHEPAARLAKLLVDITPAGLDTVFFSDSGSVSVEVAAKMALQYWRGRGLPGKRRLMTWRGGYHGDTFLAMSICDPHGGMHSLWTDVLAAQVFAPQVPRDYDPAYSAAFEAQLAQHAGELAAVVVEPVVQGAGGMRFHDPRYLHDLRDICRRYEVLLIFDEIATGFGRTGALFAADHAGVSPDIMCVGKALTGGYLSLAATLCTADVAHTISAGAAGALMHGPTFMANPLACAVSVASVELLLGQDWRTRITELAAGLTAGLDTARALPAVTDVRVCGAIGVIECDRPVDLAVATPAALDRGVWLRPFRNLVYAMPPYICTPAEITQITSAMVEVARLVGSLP
# [16] = target: T7, Diacylglycerol lipase-beta (Mus musculus, UniProt Q91WC9); assay: Late stage assay provider results from the probe development effort to identify inhibitors of diacylglycerol lipase, beta (DAGLb): LCMS-based biochemical dose response assay.; type: functional
# T7 sequence (Q91WC9 whole entry): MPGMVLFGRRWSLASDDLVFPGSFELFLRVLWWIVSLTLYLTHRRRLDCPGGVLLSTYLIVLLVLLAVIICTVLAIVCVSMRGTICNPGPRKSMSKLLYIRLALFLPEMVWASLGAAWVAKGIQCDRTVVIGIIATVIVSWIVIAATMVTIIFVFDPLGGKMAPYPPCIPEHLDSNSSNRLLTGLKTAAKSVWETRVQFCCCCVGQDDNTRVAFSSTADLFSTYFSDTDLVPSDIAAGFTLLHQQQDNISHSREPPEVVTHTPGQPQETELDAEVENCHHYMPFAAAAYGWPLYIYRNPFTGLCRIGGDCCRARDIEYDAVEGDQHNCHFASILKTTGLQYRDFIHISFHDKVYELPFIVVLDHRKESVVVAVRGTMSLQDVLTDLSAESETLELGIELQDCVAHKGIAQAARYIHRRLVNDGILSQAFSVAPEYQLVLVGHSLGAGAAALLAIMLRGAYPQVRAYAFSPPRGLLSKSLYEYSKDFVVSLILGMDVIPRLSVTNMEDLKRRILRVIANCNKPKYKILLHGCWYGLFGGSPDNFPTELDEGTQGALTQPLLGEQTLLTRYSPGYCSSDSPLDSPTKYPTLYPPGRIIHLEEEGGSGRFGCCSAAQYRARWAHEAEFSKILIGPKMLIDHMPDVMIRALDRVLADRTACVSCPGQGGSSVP
# [17] = target: T7, Diacylglycerol lipase-beta; assay: Late stage assay provider results from the probe development effort to identify inhibitors of diacylglycerol lipase, beta (DAGLb): fluorescence-based dose-response biochemical gel-based competitive Activity-Based Protein Profiling (ABPP) inhibition of DAGLb in vitro.; type: functional
smiles,measurement,setting,value
CC1=C(C(=O)OCc2ccc3c(c2)OCO3)C(c2ccc(O)c([N+](=O)[O-])c2)NC(=O)N1 (stereo not drawn),IC50,Interleukin-8 [1],39.8 µM (inactive)
same,IC50,Interleukin-8 [2],63.7 µM (inactive)
COC(=O)c1ccc(NC(=O)c2nc(S(=O)(=O)Cc3cccc(C)c3)ncc2Cl)cc1,EC50,[3],0.941 µM (active)
same,EC50,Streptokinase A,> 150 µM (not active)
same,EC50,Streptococcus,3.07 µM (active)
same,IC50,CHO,2.53 µM (active)
same,AC50,[4],0.389 µM (active)
same,AC50,[5],1.26 µM (active)
same,EC50,Protein RecA,0.228 µM (active)
same,IC50,Beta Lactamase,10.7 µM (inactive)
same,AC50,INS1,7.28 µM (active)
same,AC50,[6],1.35 µM (active)
same,EC50,[7],44.2 µM (active)
same,AC50,[8],33.5 µM (active)
same,AC50,[9],5.82 µM (active)
O=C1c2sccc2-c2cccc3cccc1c23,IC50,[10],> 66 µM (inactive)
same,IC50,[11],1.02 µM (active)
same,IC50,[12],25.5 µM (inactive)
O=C(O)CC(CCc1ccccc1)NC(=O)c1cccs1 (stereo not drawn),EC50,[13],> 100 µM (inactive)
COC(=O)C(CC#Cc1ccc2c(c1)[C@]1(C(=O)N2)[C@H](c2ccc(OCCO)cc2)N2[C@H](c3ccccc3)[C@H](c3ccccc3)OC(=O)[C@H]2[C@@H]1C(=O)N1CCCCCCC1)C(=O)OC,AC50,[14],126 µM (active)
O=C(N[C@H]1CC[C@@H](CCn2cc(-c3cccnc3)nn2)O[C@H]1CO)c1ccccc1F,AC50,[15],12.3 µM (active)
O=C(N1CCCCC1Cc1ccccc1)n1cc(-c2ccc(-c3ccccc3)cc2)nn1 (stereo not drawn),IC50,[16],0.1 µM (active)
same,IC50,[17],0.043 µM (active)
